This passage reports Ki results from patent publication US8415379B2, “Pyridines” (Hoffmann-La Roche Inc., priority 2009, dated 2013).

This assay addresses T1, GABA A α5 (human receptors of composition α5β3γ2) (Homo sapiens, UniProt P18507+P31644).
T1 construct: expressed in transfected cells; host or cells: HEK293 cells, transiently transfected; membrane homogenates used
Kind of assay: [3H]flumazenil competition binding assay, human GABA A α5β3γ2 receptors in HEK293 cells. The conditions noted are these: displacement of 0.5 nM [3H]flumazenil, HEK293 membranes, 1 hour at 4° C., means of two determinations, read-out: hKi GABA A α5. On the procedure:
The affinity of compounds at GABA A receptor subtypes was measured by competition for [^3H]flumazenil (85 Ci/mmol; Roche) binding to HEK293 cells expressing rat (stably transfected) or human (transiently transfected) receptors of composition α1β3γ2, α2β3γ2, α3β3γ2 and α5β3γ2.
Cell pellets were suspended in Krebs-tris buffer (4.8 mM KCl, 1.2 mM CaCl2, 1.2 mM MgCl2, 120 mM NaCl, 15 mM Tris; pH 7.5; binding assay buffer), homogenized by polytron for ca. 20 sec on ice and centrifuged for 60 min at 4° C. (50000 g; Sorvall, rotor: SM24=20000 rpm). The cell pellets were re-suspended in Krebs-tris buffer and homogenized by polytron for ca. 15 sec on ice. Protein was measured (Bradford method, Bio-Rad) and aliquots of 1 mL were prepared and stored at −80° C.
Radioligand binding assays were carried out in a volume of […] (96-well plates) which contained […] of cell membranes, [^3H]flumazenil at a concentration of 1 nM for α1, α2 and α3 subunits and 0.5 nM for α5 subunits and the test compound in the range of […]. Nonspecific binding was defined by 10^−5 M diazepam and typically represented less than 5% of the total binding. Assays were incubated to equilibrium for 1 hour at 4° C. and harvested onto GF/C uni-filters (Packard) by filtration using a Packard harvester and washing with ice-cold wash buffer (50 mM Tris; pH 7.5). After drying, filter-retained radioactivity was detected by liquid scintillation counting. Ki values were calculated using Excel-Fit (Microsoft) and are the means of two determinations.

With `CCC(CO)NC(=O)c1ccc(OCc2c(-c3ccccn3)noc2C)cn1` (racemic) [Example 20, Rac-5-(5-Methyl-3-pyridin-2-yl-isoxazol-4-ylmethoxy)-pyridine-2-carboxylic acid (1-hydroxymethyl-propyl)-amide], the Ki stood at 8.1 nM.

Consider `Cc1onc(-c2ccccc2)c1COc1ccc(C(=O)NN(C)C)nc1` [Example 4, 5-(5-Methyl-3-phenyl-isoxazol-4-ylmethoxy)-pyridine-2-carboxylic acid N′,N′-dimethyl-hydrazide], for which the Ki worked out at 26.5 nM.

Turning to `Cc1onc(-c2ccccn2)c1COc1ccc(C(=O)N2CCSCC2)nc1` [Example 17, [5-(5-Methyl-3-pyridin-2-yl-isoxazol-4-ylmethoxy)-pyridin-2-yl]-thiomorpholin-4-yl-methanone], the Ki came to 32.9 nM.

`Cc1onc(-c2ccccn2)c1COc1ccc(C(=O)N[C@H]2CCC[C@@H]2O)nc1` [Example 18, 5-(5-Methyl-3-pyridin-2-yl-isoxazol-4-ylmethoxy)-pyridine-2-carboxylic acid ((1S,2S)-2-hydroxy-cyclopentyl)-amide]: the Ki was found to be 5.6 nM.

Turning to `O=C(c1ccc(OCc2c(-c3ccc(F)cc3)noc2CO)cn1)N1CCC(F)(F)CC1` [Example 37, (4,4-Difluoro-piperidin-1-yl)-{5-[3-(4-fluoro-phenyl)-5-hydroxymethyl-isoxazol-4-ylmethoxy]-pyridin-2-yl}-methanone], the Ki was determined as 10.2 nM.

For `CC(C)(C)NC(=O)c1ccc(OCc2c(-c3ccc(F)cc3)noc2CO)cn1` [Example 36, 5-[3-(4-Fluoro-phenyl)-5-hydroxymethyl-isoxazol-4-ylmethoxy]-pyridine-2-carboxylic acid tert-butylamide], the Ki turned out to be 74.2 nM.

`Cc1onc(-c2ccccn2)c1COc1ccc(C(=O)NCC2CC2)nc1` [Example 12, 5-(5-Methyl-3-pyridin-2-yl-isoxazol-4-ylmethoxy)-pyridine-2-carboxylic acid cyclopropyl-methyl-amide]: the Ki turned out to be 7.1 nM.

As to `Cc1onc(-c2ccccn2)c1COc1ccc(C(=O)NN2CCOCC2)nc1` [Example 9, 5-(5-Methyl-3-pyridin-2-yl-isoxazol-4-ylmethoxy)-pyridine-2-carboxylic acid morpholin-4-ylamide], the Ki was found to be 4.4 nM.

In the case of `Cc1onc(-c2ccccn2)c1COc1ccc(C(=O)NC(C)C)nc1` [Example 7, 5-(5-Methyl-3-pyridin-2-yl-isoxazol-4-ylmethoxy)-pyridine-2-carboxylic acid isopropyl-amide], the Ki was 3.2 nM.

Turning to `CCNC(=O)c1ccc(OCc2c(-c3ccccn3)noc2C)cn1` [Example 15, 5-(5-Methyl-3-pyridin-2-yl-isoxazol-4-ylmethoxy)-pyridine-2-carboxylic acid ethylamide], the Ki amounted to 5.8 nM.

For `Cc1onc(-c2ccccc2)c1COc1ccc(C(=O)NC2CCOC2)nc1` (racemic) [Example 3, Rac-5-(5-Methyl-3-phenyl-isoxazol-4-ylmethoxy)-pyridine-2-carboxylic acid (tetrahydro-furan-3-yl)-amide], the Ki is 13.9 nM.

Take `Cc1onc(-c2ccccn2)c1COc1ccc(C(=O)N[C@@H](C)C(F)(F)F)nc1` [Example 22, 5-(5-Methyl-3-pyridin-2-yl-isoxazol-4-ylmethoxy)-pyridine-2-carboxylic acid ((S)-2,2,2-trifluoro-1-methyl-ethyl)-amide]: the Ki is 5.6 nM.

On to `O=C(NCC(F)(F)F)c1ccc(OCc2c(-c3ccc(F)cc3)noc2CO)cn1` [Example 33, 5-[3-(4-Fluoro-phenyl)-5-hydroxymethyl-isoxazol-4-ylmethoxy]-pyridine-2-carboxylic acid (2,2,2-trifluoro-ethyl)-amide], for which the Ki was 10.2 nM.

As to `CC[C@@H](CO)NC(=O)c1ccc(OCc2c(-c3ccc(F)cc3)noc2CO)cn1` [Example 34, 5-[3-(4-Fluoro-phenyl)-5-hydroxymethyl-isoxazol-4-ylmethoxy]-pyridine-2-carboxylic acid ((S)-1-hydroxymethyl-propyl)-amide], the Ki came to 8.3 nM.
